Measurements as given in patent US10590158B2 (priority 2015, dated 2020).

Assays:
Assay in all cases: cells
Assay type in all cases: cell-based
MES DX cells = conditions: MDR1, 72 h, read-out: IC50 MES DX
293T cells = conditions: Homo sapiens, HEK-293T, 72 h, read-out: IC50 293T
MES SA cells = conditions: Homo sapiens, 72 h, read-out: IC50 MES SA

Compound | IC50 (MES DX cells) [nM] | IC50 (293T cells) [nM] | IC50 (MES SA cells) [nM]
COC(=O)NC1=C2/C(=C\CSSC)[C@](O)(C#C/C=C\C#C[C@]2(O)OC2OC(C)C(SC)(C(=O)c3nccc4c3[nH]c3ccc(O)cc34)C(O)C2OC2CC(OC)C(NC(C)C)CO2)CC1=O (stereo partly shown) | 34.6 | 0.00146 | 
COC(=O)NC1=C2/C(=C\CSSSC)[C@](O)(C#C/C=C\C#C[C@]2(O)OC2OC(C)C(SC)(C(=O)c3nccc4c3[nH]c3ccc(O)cc34)C(O)C2OC2CC(OC)C(NC(C)C)CO2)CC1=O (stereo partly shown) |  | 0.0162 | 0.0126
